The values that follow come from patent publication US20260258050A1, “IMMUNOMODULATOR” (HITGEN INC., priority 2023, published 2026).

Structures are written as SMILES.

The target of the assay is T1, Human IL-17AF (Homo sapiens, UniProt Q16552+Q96PD4).
T1 construct: purchased Sino Biological Inc. CT047-H08H
T1 sequence (Q16552 24-155): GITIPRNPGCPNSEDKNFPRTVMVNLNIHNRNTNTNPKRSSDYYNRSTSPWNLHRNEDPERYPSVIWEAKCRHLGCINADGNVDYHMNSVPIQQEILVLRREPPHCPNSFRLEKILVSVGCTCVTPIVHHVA
T1 sequence (Q96PD4 31-163): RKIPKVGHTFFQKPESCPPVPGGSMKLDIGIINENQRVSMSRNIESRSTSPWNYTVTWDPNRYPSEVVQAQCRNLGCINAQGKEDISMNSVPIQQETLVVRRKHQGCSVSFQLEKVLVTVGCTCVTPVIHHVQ
Put plainly: IL-17AF ELISA (competitive ELISA, IL-17AF/IL-17Ra receptor-ligand binding). The note with it: human IL-17AF coated plate, human IL-17Ra, read-out: IC50, inhibitory activity of compounds on human IL-17AF. Put shortly:
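Plates coated with 0.625 μg/ml human IL-17AF in PBS pH 7.4 (37 °C, 30 min) and milk-blocked. Compounds pre-incubated with coated IL-17AF for 10 min at 25 °C, then IL-17Ra added (as 100 nM solution) for 30 min. Bound receptor detected by anti-Fc HRP/TMB at 450 nm; IC50 from variable-slope normalized fit versus DMSO control and blank.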
As usually defined, the IC50 is the midpoint of a concentration-inhibition curve. Turning to `CCN1Cc2cc(NC(=O)[C@@H](NC(=O)c3ccnn3C(C)C)C(C3CC3)C3CC3)c(F)cc2-c2c(n[nH]c2C)CC1=O` [compound 142], the IC50 was no more than 100 nM.
As to `Cc1[nH]nc2c1-c1cc(F)c(NC(=O)[C@@H](NC(=O)c3ccnn3C(C)C)C(C3CC3)C3CC3)cc1CN(CC(C)(F)F)C(=O)C2` [compound 148], the IC50 was in the range of 100 to 500 nM.
Take `Cc1[nH]nc2c1-c1cc(F)c(NC(=O)[C@@H](NC(=O)c3ccnn3C(C)C)C(C3CC3)C3CC3)cc1CN(CC(F)(F)F)CC2` [compound 164]: the IC50 lay within 100 to 500 nM.
`Cc1[nH]nc2c1-c1ccc(NC(=O)[C@@H](NC(=O)c3ccnn3C3CC3)C(C3CC3)C3CC3)cc1COCC2` [compound 6]: the IC50 lay within 100 to 500 nM.
To `CCn1nccc1C(=O)N[C@H](C(=O)Nc1ccc2c(c1)COCCc1n[nH]c(C)c1-2)C(C1CC1)C1CC1` [compound 3] belongs no more than 100 nM.
Regarding `Cc1[nH]nc2c1-c1cc(F)c(NC(=O)[C@@H](NC(=O)c3ccnn3C(C)C)C(C3CC3)C3CC3)cc1CN(C1CC1)C(=O)C2` [compound 136], the IC50 is no more than 100 nM.
For the compound `CCN1CCc2n[nH]c(C)c2-c2cc(F)c(NC(=O)[C@@H](NC(=O)c3ccnn3C(C)C)C(C3CC3)C3CC3)cc2C1` [compound 156], the IC50 lay in the range of 100 to 500 nM.
For the compound `CCn1nccc1C(=O)N[C@H](C(=O)Nc1cc2c(cc1F)-c1c(n[nH]c1C)CC(=O)N(C(C)C)C2)C(C1CC1)C1CC1` [compound 151], the IC50 is no more than 100 nM.
For `CCn1nccc1C(=O)N[C@H](C(=O)Nc1cc2c(cc1F)-c1c(n[nH]c1C)CC(=O)N(CC(C)(F)F)C2)C(C1CC1)C1CC1` [compound 149], the IC50 is no more than 100 nM.
On to `Cc1[nH]nc2c1-c1cc(F)c(NC(=O)[C@@H](NC(=O)c3ccnn3C(C)C)C(C3CC3)C3CC3)cc1CN(CC(F)F)CC2` [compound 158], for which the IC50 was 100 to 500 nM.
Take `Cc1[nH]nc2c1-c1cnc(NC(=O)[C@@H](NC(=O)c3ccnn3C[C@@H]3C[C@H]3F)C(C3CC3)C3CC3)cc1COCC2` [compound 125]: the IC50 was 100 to 500 nM.
In the case of `CCN1Cc2cc(NC(=O)[C@@H](NC(=O)c3ccnn3CC)C(C3CC3)C3CC3)c(F)cc2-c2c(n[nH]c2C)CC1=O` [compound 143], the half-maximal inhibitory concentration (IC50) is no more than 100 nM.
Consider `Cc1[nH]nc2c1-c1cc(F)c(NC(=O)[C@@H](NC(=O)c3ccnn3C(C)C)C(C3CC3)C3CC3)cc1CN(CC(C)(F)F)CC2` [compound 160], for which the IC50 is 100 to 500 nM.
Take `Cc1[nH]nc2c1-c1cc(F)c(NC(=O)[C@@H](NC(=O)c3ccnn3C(C)C)C(C3CC3)C3CC3)cc1CN(C(C)C)C(=O)C2` [compound 150]: the IC50 was no more than 100 nM.
Turning to `CCn1nccc1C(=O)N[C@H](C(=O)Nc1cc2c(cc1F)-c1c(n[nH]c1C)CCN(CC(F)F)C2)C(C1CC1)C1CC1` [compound 159], the IC50 was no more than 100 nM.
On to `Cc1[nH]nc2c1-c1cc(F)c(NC(=O)[C@@H](NC(=O)c3ccnn3C(C)C)C(C3CC3)C3CC3)cc1CN(CC1CC1)C(=O)C2` [compound 153], for which the IC50 was no more than 100 nM.
Regarding `CCn1nccc1C(=O)N[C@H](C(=O)Nc1cc2c(cc1F)-c1c(n[nH]c1C)CC(=O)N(CC(F)F)C2)C(C1CC1)C1CC1` [compound 145], the IC50 is no more than 100 nM.
With `Cc1[nH]nc2c1-c1cc(F)c(NC(=O)[C@@H](NC(=O)c3ccnn3C(C)C)C(C3CC3)C3CC3)cc1CN(CC(F)F)C(=O)C2` [compound 144], the IC50 is 100 to 500 nM.
As to `CCn1nccc1C(=O)N[C@H](C(=O)Nc1cc2c(cc1F)-c1c(n[nH]c1C)CC(=O)N(C)C2)C(C1CC1)C1CC1` [compound 133], the IC50 fell in the range of 100 to 500 nM.
For the compound `Cc1[nH]nc2c1-c1cc(F)c(NC(=O)[C@@H](NC(=O)c3ccnn3C(C)C)C(C3CC3)C3CC3)cc1CN(C1CC1)CC2` [compound 165], the IC50 lay in the range of 100 to 500 nM.
To `Cc1[nH]nc2c1-c1cc(F)c(NC(=O)[C@@H](NC(=O)c3ccnn3C(C)C)C(C3CC3)C3CC3)cc1CN(C)C(=O)C2` [compound 132] belongs 100 to 500 nM.
As for `CCn1nccc1C(=O)N[C@H](C(=O)Nc1cc2c(cc1F)-c1c(n[nH]c1C)CCN(CC(C)(F)F)C2)C(C1CC1)C1CC1` [compound 161], the IC50 is no more than 100 nM.
On to `Cc1[nH]nc2c1-c1cc(F)c(NC(=O)[C@@H](NC(=O)c3ccnn3C(C)C)C(C3CC3)C3CC3)cc1CN(CC(F)(F)F)C(=O)C2` [compound 152], for which the IC50 was in the range of 100 to 500 nM.
